{"source": "patent US8574925B2", "about": "“Fluorescence analysis method using fluorescent-activating antibodies” (Hamamatsu Photonics K.K., priority 2002, dated 2013)", "assay_type_in_all_cases": "binding, guinea pig", "key": {"anti-MG-Ins Fab [1]": {"tested_on": "anti-MG-Ins Fab", "test": "Calibration curve: insulin concentration vs MG fluorescence intensity with anti-MG-Ins Fab and malachite green", "settings": "1 μM anti-MG-Ins Fab, 0.4 μM MG, excitation 620 nm, fluorescence 650 nm; FIG. 13", "description": "A calibration curve, indicating the relationship between the insulin concentration and fluorescence intensity for a fixed amount (1 μM) of the anti-MG-Ins Fab and a fixed amount (0.4 μM) of MG, was prepared as follows. Since the insulin used forms aggregate of a few molecules because of containing zinc, the insulin was dissolved in advance in PB containing SDS at a final concentration of 0.1% to dissociate the aggregate. The insulin solution thus obtained was thereafter run through a gel permeation column (Fast Desaliting Column HR 10/10, made by Pharnacia), equilibrated using PBS. The insulin solution from which SDS was thus removed was used in the following quantification. • (1) The fluorescence spectrophotometer was set to an excitation wavelength of 620 nm and a fluorescence wavelength of 650 nm and the temperature of the cell holder was maintained at a fixed temperature (25° C.). • (2) 2 ml (A=2 ml) of an antibody-dye solution, containing 1 μM (Y=1 μM) of the anti-MG-Ins Fab and 0.4 μM (Z=0.4 μM) of MG, were prepared (with phosphate buffered saline (pH 7.2, PBS) as the solvent) (S101). • (3) The antibody-dye solution thus obtained was placed in a standard fluorescence measurement cell. This cell was set in the fluorescence spectrophotometer. The solution in the cell was stirred for 30 seconds with a micro stirring bar. […]"}, "anti-MG-Ins Fab [2]": {"tested_on": "anti-MG-Ins Fab", "test": "Calibration curve: insulin concentration vs AO fluorescence intensity with anti-MG-Ins Fab and auramine O", "settings": "2 μM anti-MG-Ins Fab, 0.4 μM AO, excitation 400 nm, fluorescence 520 nm; FIG. 15", "description": "A calibration curve was prepared for insulin concentrations in the range of 0 to 7.7 μM in the same manner as described above in [1-10-1] other than the changes of setting the anti-MG-Ins Fab concentration to 2 μM, using 0.4 μM of auramine O in place of 0.4 μM of malachite green, setting the excitation wavelength to 400 nm, and setting the fluorescence wavelength to 520 nm."}, "anti-MG-Ins Fab [3]": {"tested_on": "anti-MG-Ins Fab", "test": "Verification test concerning the reversibility of the antigen-antibody reactions (AO fluorescence)", "description": "The following experiment was carried out in order to confirm that, when the free insulin concentration in the same sample is varied by repeating the addition of insulin and the addition of anti-porcine insulin IgG (referred to hereinafter as “anti-insulin IgG”) in a solution containing the anti-MG-Ins Fab and auramine O, the measurement values of this invention vary following the variation of the free insulin concentration, that is, the antigen-antibody reactions concerning this invention are reversible and enable analysis in real time. The measurement of fluorescence intensity was carried out under the same measurement conditions as described above in [2-2-1].\nFirst, 2 ml of a PBS solution, containing 2 μM of the anti-MG-Ins Fab and 0.4 μM of auramine O, were prepared. The AO fluorescence intensity was measured upon placing the solution in a cell. The florescence intensity at this time was set to a relative value of 1.\nInsulin was then added to the solution in the cell so that the insulin concentration will be 1.26 μM.\nA fixed amount (0.135 μM) of the anti-insulin IgG was then added to this solution. […] The AO fluorescence intensity returned to the original value since the anti-insulin IgG and insulin became bonded and free insulin no longer existed in the solution.\nWhen insulin was then added again to this solution so that the insulin concentration will be 2.39 μM."}, "anti-MG-Ins Fab [4]": {"tested_on": "anti-MG-Ins Fab", "test": "Fluorescence spectrum of malachite green bound to the anti-MG-Ins Fab", "settings": "Fab 0.955 μM, MG 0.907 μM, PBS pH 7.2, 25° C., excitation 620 nm; FIG. 11", "procedure": "The fluorescence spectrum of MG when MG is bound to the anti-MG-Ins Fab by an antigen-antibody reaction was measured as follows. The anti-MG-Ins Fab and MG were mixed so that the respective concentrations will be 0.955 μM and 0.907 μM (using phosphate buffered saline (pH 7.2, PBS) as the solvent). Then, an antigen-antibody reaction was made to proceed by stirring for five minutes at 25° C. Then using the fluorescence spectrophotometer, the fluorescence spectrum emitted from the above-described mixed solution was measured under the conditions of an excitation wavelength of 620 nm, fluorescence wavelength of 630 to 750 nm, and bandpass width being set to 5 nm at both the excitation and fluorescence sides.\nFluorescence spectra were also measured in the same manner as the above for various MG concentrations in the range of 0 to 0.9 μM with the anti-MG-Ins Fab concentration being set at 1 μM."}, "anti-MG-Ins IgG": {"tested_on": "anti-MG-Ins IgG", "test": "Fluorescence spectrum of auramine O bound to the anti-MG-Ins IgG", "settings": "IgG 1 μM, AO 1 μM, PBS pH 7.2, 25° C., excitation 400 nm; FIG. 14", "description": "The fluorescence spectrum of AO when AO is bound to the anti-MG-Ins IgG by an antigen-antibody reaction was measured as follows. The anti-MG-Ins IgG and AO were mixed so that the respective concentrations will be 1 μM and 1 μM (using phosphate buffered saline (pH 7.2, PBS) as the solvent). An antigen-antibody reaction was made to proceed by stirring for five minutes at 25° C. Then using the fluorescence spectrophotometer, the fluorescence spectrum emitted from the above-described mixed solution was measured under the conditions of an excitation wavelength of 400 nm, fluorescence wavelength of 450 to 650 nm, and bandpass width being set to 5 nm at both the excitation and fluorescence sides."}}, "data": [{"molecule": "insulin", "values": [{"measurement": "change of malachite green fluorescence intensity with increase of insulin concentration", "setting": "anti-MG-Ins Fab [1]", "result": "enhancement of fluorescence occurs"}, {"measurement": "change of auramine O fluorescence intensity with increase of insulin concentration", "setting": "anti-MG-Ins Fab [2]", "result": "inhibition of fluorescence occurs"}, {"measurement": "relative value of the AO fluorescence intensity", "setting": "anti-MG-Ins Fab [3]; insulin added again to 2.39 μM", "result": "decreased again"}, {"measurement": "relative value of the AO fluorescence intensity", "setting": "anti-MG-Ins Fab [3]; insulin added again to 3.37 μM", "result": "decreased"}, {"measurement": "relative value of the AO fluorescence intensity", "setting": "anti-MG-Ins Fab [3]; insulin added to 1.26 μM, 2 μM anti-MG-Ins Fab, 0.4 μM AO, start value 1", "result": "approximately 0.97"}]}, {"molecule": "CN(C)c1ccc(C(=C2C=CC(=[N+](C)C)C=C2)c2ccccc2)cc1", "note": "[malachite green]", "values": [{"measurement": "fluorescence upon binding with the anti-MG-Ins Fab", "setting": "anti-MG-Ins Fab [4]", "result": "became fluorescent"}]}, {"molecule": "CN(C)c1ccc(C(=N)c2ccc(N(C)C)cc2)cc1", "note": "[auramine O]", "values": [{"measurement": "fluorescence upon binding with the anti-MG-Ins IgG", "setting": "anti-MG-Ins IgG", "result": "became fluorescent"}]}]}
